Laboratory results taken from patent publication US10245299B2, “Autoassembling peptides for the treatment of pulmonary bulla” (3-D MATRIX, LTD., priority 2014, dated 2019).

System: pulmonary bullae
Assay: Burst pressure of hydrogels as air sealants on collapsed pulmonary bullae of swine lungs
Description: Swine lungs were obtained from freshly euthanized pigs. An endotracheal tube was inserted through the trachea and primary bronchus into the lung of interest. Pressure was supplied to the lungs with the use of a manual endotracheal intubation pump. The trachea was tied off to prevent air leakage around the tube. The other primary bronchus of the other lung was clamped to direct all airflow to the lung of interest. A manometer was used to measure the pressure of air directed into the lungs to induce expansion.
The self-assembling peptide hydrogels were comprised of Ac-RADARADARADARADA-NH2 (SEQ ID NO: 1) (i.e. RADA16) and Ac-IEIKIEIKIEIKI-NH2 (SEQ ID NO: 2) (i.e. IEIK13) with RADA16 used alone or mixed with calcium chloride. If alone, the peptides were reconstituted in deionized water. If, however the peptides were reconstituted with a salt solution, the peptides were reconstituted first in deionized water, and subsequently, a 2× solution of calcium chloride at a previously decided concentration which was mixed in at a 1:1 ratio.
Pulmonary bullae, as depicted in FIG. 25, are naturally occurring weak areas of the pleura. Prior to application of the hydrogels, the bullae were identified and collapsed using a 16 G needle. […]

Substance: Arg-Ala-Asp-Ala-Arg-Ala-Asp-Ala-Arg-Ala-Asp-Ala-Arg-Ala-Asp-Ala [PuraMatrix®]
- burst pressure compared among formulations (2.5% RADA16 mixed with 0.250 M CaCl2): best burst pressure
- filling of collapsed bullae cavity, histological analysis (2.5% RADA16 with CaCl2): entirely filled the pulmonary bullae cavity
